Reference: PubChem BioAssay AID1259407 (Chemical Carcinogenesis Research Information System (CCRIS), 2018)
The source made the active and inactive calls. How the calls were made is not given here.

System: CCRIS mutagenicity, Ames/micronucleus/aberration tests
Experiment: CCRIS mutagenicity studies
[1] = Test System: AMES SALMONELLA TYPHIMURIUM, Strain/Indicator: TA97, Metabolic Activation: NONE, Method: PREINCUBATION
[2] = Test System: AMES SALMONELLA TYPHIMURIUM, Strain/Indicator: TA98, Metabolic Activation: NONE, Method: STANDARD PLATE
[3] = Test System: AMES SALMONELLA TYPHIMURIUM, Strain/Indicator: TA100, Metabolic Activation: NONE, Method: STANDARD PLATE

Measured: mutagenic call

O=S(=O)(O)c1ccc(N=Nc2c(O)ccc3cc(S(=O)(=O)O)ccc23)cc1
inactive: End Point: IN VITRO CHROMOSOMAL ABERRATIONS, Test System: CHO CELLS, Metabolic Activation: NONE inactive; negative | End Point: IN VITRO CHROMOSOMAL ABERRATIONS, Test System: CHO CELLS, Metabolic Activation: RAT, LIVER, S-9, AROCLOR 1254 inactive; negative | Test System: AMES SALMONELLA TYPHIMURIUM, Strain/Indicator: TA97, Metabolic Activation: HAMSTER, LIVER, S-9, AROCLOR 1254 (10%), Method: PREINCUBATION inactive; negative | Test System: AMES SALMONELLA TYPHIMURIUM, Strain/Indicator: TA97, Metabolic Activation: HAMSTER, LIVER, S-9, AROCLOR 1254 (30%), Method: PREINCUBATION inactive; negative | [1] inactive; negative | Test System: AMES SALMONELLA TYPHIMURIUM, Strain/Indicator: TA97, Metabolic Activation: RAT, LIVER, S-9, AROCLOR 1254 (10%), Method: PREINCUBATION inactive; negative | Test System: AMES SALMONELLA TYPHIMURIUM, Strain/Indicator: TA97, Metabolic Activation: RAT, LIVER, S-9, AROCLOR 1254 (30%), Method: PREINCUBATION inactive; negative | Test System: AMES SALMONELLA TYPHIMURIUM, Strain/Indicator: TA98, Metabolic Activation: HAMSTER, LIVER, S-9, AROCLOR 1254 (10%), Method: PREINCUBATION inactive; negative | Test System: AMES SALMONELLA TYPHIMURIUM, Strain/Indicator: TA98, Metabolic Activation: HAMSTER, LIVER, S-9, AROCLOR 1254 (30%), Method: PREINCUBATION inactive; negative | Test System: AMES SALMONELLA TYPHIMURIUM, Strain/Indicator: TA98, Metabolic Activation: NONE, Method: PREINCUBATION inactive; negative | [2] inactive; negative | Test System: AMES SALMONELLA TYPHIMURIUM, Strain/Indicator: TA98, Metabolic Activation: RAT LIVER S-9, AROCLOR 1254, Method: STANDARD PLATE inactive; negative | Test System: AMES SALMONELLA TYPHIMURIUM, Strain/Indicator: TA98, Metabolic Activation: RAT, LIVER, S-9, AROCLOR 1254 (10%), Method: PREINCUBATION inactive; negative | Test System: AMES SALMONELLA TYPHIMURIUM, Strain/Indicator: TA98, Metabolic Activation: RAT, LIVER, S-9, AROCLOR 1254 (30%), Method: PREINCUBATION inactive; negative | Test System: AMES SALMONELLA TYPHIMURIUM, Strain/Indicator: TA98, Metabolic Activation: RAT, LIVER, S-9, PHENOBARBITAL, Method: PREINCUBATION inactive; negative | Test System: AMES SALMONELLA TYPHIMURIUM, Strain/Indicator: TA100, Metabolic Activation: HAMSTER, LIVER, S-9, AROCLOR 1254 (10%), Method: PREINCUBATION inactive; negative | Test System: AMES SALMONELLA TYPHIMURIUM, Strain/Indicator: TA100, Metabolic Activation: HAMSTER, LIVER, S-9, AROCLOR 1254 (30%), Method: PREINCUBATION inactive; negative | Test System: AMES SALMONELLA TYPHIMURIUM, Strain/Indicator: TA100, Metabolic Activation: NONE, Method: PREINCUBATION inactive; negative | [3] inactive; negative | Test System: AMES SALMONELLA TYPHIMURIUM, Strain/Indicator: TA100, Metabolic Activation: RAT LIVER S-9, AROCLOR 1254, Method: STANDARD PLATE inactive; negative | Test System: AMES SALMONELLA TYPHIMURIUM, Strain/Indicator: TA100, Metabolic Activation: RAT, LIVER, S-9, AROCLOR 1254 (10%), Method: PREINCUBATION inactive; negative | Test System: AMES SALMONELLA TYPHIMURIUM, Strain/Indicator: TA100, Metabolic Activation: RAT, LIVER, S-9, AROCLOR 1254 (30%), Method: PREINCUBATION inactive; negative | Test System: AMES SALMONELLA TYPHIMURIUM, Strain/Indicator: TA100, Metabolic Activation: RAT, LIVER, S-9, PHENOBARBITAL, Method: PREINCUBATION inactive; negative | Test System: AMES SALMONELLA TYPHIMURIUM, Strain/Indicator: TA1535, Metabolic Activation: HAMSTER, LIVER, S-9, AROCLOR 1254 (10%), Method: PREINCUBATION inactive; negative | Test System: AMES SALMONELLA TYPHIMURIUM, Strain/Indicator: TA1535, Metabolic Activation: HAMSTER, LIVER, S-9, AROCLOR 1254 (30%), Method: PREINCUBATION inactive; negative | Test System: AMES SALMONELLA TYPHIMURIUM, Strain/Indicator: TA1535, Metabolic Activation: NONE, Method: PREINCUBATION inactive; negative | Test System: AMES SALMONELLA TYPHIMURIUM, Strain/Indicator: TA1535, Metabolic Activation: RAT, LIVER, S-9, AROCLOR 1254 (10%), Method: PREINCUBATION inactive; negative | Test System: AMES SALMONELLA TYPHIMURIUM, Strain/Indicator: TA1535, Metabolic Activation: RAT, LIVER, S-9, AROCLOR 1254 (30%), Method: PREINCUBATION inactive; negative

CCCCC/C(C=O)=C/c1ccccc1
inactive: [1] inactive; negative | Test System: AMES SALMONELLA TYPHIMURIUM, Strain/Indicator: TA97, Metabolic Activation: RAT, LIVER, S-9, AROCLOR 1254, Method: PREINCUBATION inactive; negative | Test System: AMES SALMONELLA TYPHIMURIUM, Strain/Indicator: TA102, Metabolic Activation: NONE, Method: PREINCUBATION inactive; negative | Test System: AMES SALMONELLA TYPHIMURIUM, Strain/Indicator: TA102, Metabolic Activation: RAT, LIVER, S-9, AROCLOR 1254, Method: PREINCUBATION inactive; negative

COC(=O)c1ccc(O)cc1
inactive: [2] inactive; negative | Test System: AMES SALMONELLA TYPHIMURIUM, Strain/Indicator: TA98, Metabolic Activation: RAT, LIVER, S-9, AROCLOR 1254, Method: STANDARD PLATE inactive; negative | [3] inactive; negative | Test System: AMES SALMONELLA TYPHIMURIUM, Strain/Indicator: TA100, Metabolic Activation: RAT, LIVER, S-9, AROCLOR 1254, Method: STANDARD PLATE inactive; negative | Test System: AMES SALMONELLA TYPHIMURIUM, Strain/Indicator: TA1535, Metabolic Activation: NONE, Method: STANDARD PLATE inactive; negative | Test System: AMES SALMONELLA TYPHIMURIUM, Strain/Indicator: TA1535, Metabolic Activation: RAT, LIVER, S-9, AROCLOR 1254, Method: STANDARD PLATE inactive; negative | Test System: AMES SALMONELLA TYPHIMURIUM, Strain/Indicator: TA1537, Metabolic Activation: NONE, Method: STANDARD PLATE inactive; negative | Test System: AMES SALMONELLA TYPHIMURIUM, Strain/Indicator: TA1537, Metabolic Activation: RAT, LIVER, S-9, AROCLOR 1254, Method: STANDARD PLATE inactive; negative | Test System: AMES SALMONELLA TYPHIMURIUM, Strain/Indicator: TA1538, Metabolic Activation: NONE, Method: STANDARD PLATE inactive; negative | Test System: AMES SALMONELLA TYPHIMURIUM, Strain/Indicator: TA1538, Metabolic Activation: RAT, LIVER, S-9, AROCLOR 1254, Method: STANDARD PLATE inactive; negative | Test System: E. COLI, Strain/Indicator: WP2, Metabolic Activation: NONE, Method: STANDARD PLATE inactive; negative | Test System: E. COLI, Strain/Indicator: WP2, Metabolic Activation: RAT, LIVER, S-9, AROCLOR 1254, Method: STANDARD PLATE inactive; negative
